Consider eight compounds from PubChem BioAssay (NCI).

Some test systems named below: CCRF-CEM leukemia; UO-31 renal; SF-268 CNS; MDA-MB-435; LOX IMVI melanoma; UACC-62 melanoma; ACHN renal; KM12 colon; SK-MEL-5 melanoma; SK-MEL-28 melanoma.
Experiment in all cases: NCI tumour cell line growth inhibition, 48 h

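48-hour exposure; five concentrations; linearly interpolated endpoints. Here, GI50 denotes the concentration required for 50% inhibition of growth. TGI: concentration producing complete growth inhibition.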 Where only a bound is given, the exact number is not on record here.

Consider `Cc1cc(C)c(S(=O)(=O)N(CCc2cccc(Br)c2)Cc2ccc(-c3cccc(S(C)(=O)=O)c3)cc2)c(C)c1`, for which the GI50 in the experiment on CCRF-CEM leukemia, in the experiment with UO-31 renal, with SF-268 CNS, with MDA-MB-435, in the experiment on LOX IMVI melanoma and in the experiment on UACC-62 melanoma was more than 100 µM throughout. In addition, the GI50 in the experiment on ACHN renal, with KM12 colon, in the experiment on SK-MEL-5 melanoma and with SK-MEL-28 melanoma was more than 100 µM each time. The TGI with CCRF-CEM leukemia, with UO-31 renal, in the experiment on SF-268 CNS, in the experiment on MDA-MB-435, in the experiment with LOX IMVI melanoma and in the experiment on UACC-62 melanoma was more than 100 µM throughout. Besides, the TGI in the experiment on ACHN renal, with KM12 colon, in the experiment on SK-MEL-5 melanoma and in the experiment on SK-MEL-28 melanoma was more than 100 µM each time.
Consider `Clc1ccc(CNc2nccc(-c3cnn4ncccc34)n2)cc1`, for which the GI50 with CCRF-CEM leukemia is 9.69 µM; in the experiment with UO-31 renal, 6.75 µM; in the experiment on SF-268 CNS it was 7.25 µM; in the experiment with MDA-MB-435, 6.3 µM; with LOX IMVI melanoma it was 6.12 µM; in the experiment on UACC-62 melanoma, 3.74 µM. Further, the GI50 is 5.95 µM with ACHN renal, 5.55 µM in the experiment on KM12 colon, 5.4 µM in the experiment on SK-MEL-5 melanoma and 5.64 µM with SK-MEL-28 melanoma. In addition, the TGI is more than 25 µM in the experiment with CCRF-CEM leukemia; more than 19.5 µM with UO-31 renal; more than 22.7 µM in the experiment with SF-268 CNS; 20.6 µM with MDA-MB-435; more than 25 µM in the experiment on LOX IMVI melanoma; 8.73 µM with UACC-62 melanoma. The TGI in the experiment on ACHN renal was more than 25 µM; with KM12 colon it was 15.5 µM; with SK-MEL-5 melanoma it was more than 25 µM; with SK-MEL-28 melanoma, 17.5 µM.
Regarding `COC(=O)[C@H](C)NC(=O)[C@@H](OC)[C@@H]1Cc2cc3cc(OC4CC(OC5CC(O)C(O)C(C)O5)C(O)C(C)O4)c(C)c(O)c3c(O)c2C(=O)[C@H]1OC1CC(OC2CC(OC3CC(C)(O)C(O)C(C)O3)C(O)C(C)O2)C(O)C(C)O1` (stereo not given in full), the GI50 in the experiment on CCRF-CEM leukemia was 0.147 µM; with UO-31 renal, 0.182 µM; in the experiment with SF-268 CNS it was 0.092 µM; with MDA-MB-435 it was 0.0755 µM; in the experiment with LOX IMVI melanoma, 0.0308 µM; with UACC-62 melanoma, 0.0417 µM. Further, the GI50 in the experiment on ACHN renal is 0.119 µM; in the experiment on KM12 colon, 0.0944 µM; in the experiment on SK-MEL-5 melanoma, 0.0358 µM; with SK-MEL-28 melanoma, 0.0309 µM. Also, the TGI is more than 50 µM in the experiment with CCRF-CEM leukemia; 3.09 µM in the experiment on UO-31 renal; more than 50 µM in the experiment with SF-268 CNS; 0.905 µM in the experiment on MDA-MB-435; more than 50 µM in the experiment on LOX IMVI melanoma; 0.171 µM in the experiment on UACC-62 melanoma. Also, the TGI in the experiment with ACHN renal is 2.23 µM; in the experiment with KM12 colon it was more than 50 µM; in the experiment with SK-MEL-5 melanoma it was 0.355 µM; in the experiment with SK-MEL-28 melanoma, 0.351 µM.
With `c1ccc(B2OCC(C3OB(c4ccccc4)OC4COB(c5ccccc5)OC43)O2)cc1` (stereo not given), the TGI in the experiment with CCRF-CEM leukemia, in the experiment with UO-31 renal, with SF-268 CNS, in the experiment on MDA-MB-435, in the experiment with LOX IMVI melanoma and in the experiment on UACC-62 melanoma was more than 100 µM in each case. The TGI with ACHN renal, in the experiment with KM12 colon, in the experiment with SK-MEL-5 melanoma and in the experiment with SK-MEL-28 melanoma was more than 100 µM each time.
Consider `CCC1(NC(=O)c2cc(F)c(F)c(F)c2F)C(=O)NC(=O)N(C(C)C)C1=O` (stereo not given), for which the GI50 was 19.8 µM with CCRF-CEM leukemia; more than 100 µM with UO-31 renal; 19.1 µM with SF-268 CNS; 15.8 µM in the experiment with MDA-MB-435; 16.7 µM with LOX IMVI melanoma; 15.7 µM in the experiment with UACC-62 melanoma. For the same compound, the GI50 in the experiment with ACHN renal was 73.5 µM; in the experiment on KM12 colon it was more than 100 µM; with SK-MEL-5 melanoma, 16.8 µM; with SK-MEL-28 melanoma, 14.5 µM. Besides, the TGI was 75.3 µM in the experiment with CCRF-CEM leukemia; more than 100 µM with UO-31 renal; 37 µM in the experiment on SF-268 CNS; 36.2 µM in the experiment with MDA-MB-435; 54.5 µM with LOX IMVI melanoma; 34.1 µM with UACC-62 melanoma. In addition, the TGI with ACHN renal is more than 100 µM; with KM12 colon, more than 100 µM; in the experiment with SK-MEL-5 melanoma, 33 µM; in the experiment with SK-MEL-28 melanoma it was 45 µM.
Consider `CC1(C)CC([P+](c2ccccc2)(c2ccccc2)c2ccccc2)=NN1`, for which the GI50 with CCRF-CEM leukemia is 8.36 µM; in the experiment with UO-31 renal it was more than 100 µM; with SF-268 CNS, 5.09 µM; in the experiment with MDA-MB-435 it was 2.79 µM; with LOX IMVI melanoma it was 3.74 µM; in the experiment with UACC-62 melanoma it was 3.17 µM. Further, the GI50 in the experiment with ACHN renal was 60.2 µM; with KM12 colon it was 1.89 µM; with SK-MEL-5 melanoma it was 3.13 µM; in the experiment with SK-MEL-28 melanoma, 8.67 µM. Besides, the TGI in the experiment on CCRF-CEM leukemia, with UO-31 renal, in the experiment on SF-268 CNS, in the experiment on MDA-MB-435, with LOX IMVI melanoma and in the experiment on UACC-62 melanoma was more than 100 µM throughout. Further, the TGI in the experiment with ACHN renal is more than 100 µM; with KM12 colon it was 45.9 µM; in the experiment on SK-MEL-5 melanoma, 17.7 µM; in the experiment with SK-MEL-28 melanoma, more than 100 µM.
`CN(CC(=O)O)Cc1oc(CO)cc(=O)c1O`: the TGI with CCRF-CEM leukemia, in the experiment with UO-31 renal, in the experiment on SF-268 CNS, in the experiment on MDA-MB-435, in the experiment with LOX IMVI melanoma and in the experiment on UACC-62 melanoma was more than 100 µM in each case. Also, the TGI in the experiment on ACHN renal, with KM12 colon, in the experiment on SK-MEL-5 melanoma and in the experiment on SK-MEL-28 melanoma was more than 100 µM in each case.
For `Cc1cnccc1N=Nc1ccc(N(C)C)cc1`, the TGI is more than 100 µM in the experiment on CCRF-CEM leukemia; more than 100 µM in the experiment on UO-31 renal; 56.5 µM with SF-268 CNS; 41.2 µM in the experiment on MDA-MB-435; 53.9 µM in the experiment with LOX IMVI melanoma; 40.7 µM in the experiment on UACC-62 melanoma. Moreover, the TGI in the experiment on ACHN renal was more than 100 µM; in the experiment with KM12 colon, more than 100 µM; in the experiment with SK-MEL-5 melanoma, 29.5 µM; with SK-MEL-28 melanoma, 52.7 µM.
